One may read the solubility as how much of the substance goes into solution per volume. By IC50 is commonly meant the concentration at which inhibition is half-maximal.

Values after ≈ are worked out from the molar mass of the structure shown. Read-outs that look alike come from different tables or passages of the source. Some results are limits rather than exact numbers.

The results in this text go back to patent publication US11021445B2, “Carboxylic acid derivative as AT2R receptor antagonist” (SHANDONG DANHONG PHARMACEUTICAL CO., LTD., priority 2017, dated 2021).

Data set [1] in a line: Determination of kinetic solubility. The data set is classed as physicochemical. Particulars: buffer solution pH 7.4, aqueous buffer, kinetic from dmso stock, pH 7.4, 24 hours at room temperature, theoretical maximum 200 μM. The procedure: The to-be-tested compound was dissolved in DMSO to prepare a 10 mmol/L stock solution. 980 μL of dissolution medium was pipetted into a 2 mL screw-capped glass vial by using a pipette (Eppendorf Research Company). 20 μL of the stock solution of each test compound and the QC sample were added to a buffer solution corresponding to a kinetic detection solution of pH 7.4. The final concentrations of the test compound and DMSO solution were 200 μM and 2%, respectively. The cover of the medicine bottle was screwed. The theoretical maximum concentration is 200 μM. The mixture was shaken at 880 rpm for 24 hours at room temperature. The vial was centrifuged for 30 minutes at 13,000 rpm. 200 μL of the supernatant was added to a 96-well plate by using a digital pipette. The solubility of the test compound was determined by high performance liquid chromatography, and the experimental results are shown in Table 2.

The next data set concerns the target T1, CYP1A2 (Homo sapiens, UniProt P05177).
T1 construct: Mixed human liver microsomes (pooled HLM, n≥50) were purchased from Corning Inc; tissue Corning Inc. or other qualified suppliers; host or cells: pooled human liver microsomes (n≥50)
T1 sequence (P05177 1-516): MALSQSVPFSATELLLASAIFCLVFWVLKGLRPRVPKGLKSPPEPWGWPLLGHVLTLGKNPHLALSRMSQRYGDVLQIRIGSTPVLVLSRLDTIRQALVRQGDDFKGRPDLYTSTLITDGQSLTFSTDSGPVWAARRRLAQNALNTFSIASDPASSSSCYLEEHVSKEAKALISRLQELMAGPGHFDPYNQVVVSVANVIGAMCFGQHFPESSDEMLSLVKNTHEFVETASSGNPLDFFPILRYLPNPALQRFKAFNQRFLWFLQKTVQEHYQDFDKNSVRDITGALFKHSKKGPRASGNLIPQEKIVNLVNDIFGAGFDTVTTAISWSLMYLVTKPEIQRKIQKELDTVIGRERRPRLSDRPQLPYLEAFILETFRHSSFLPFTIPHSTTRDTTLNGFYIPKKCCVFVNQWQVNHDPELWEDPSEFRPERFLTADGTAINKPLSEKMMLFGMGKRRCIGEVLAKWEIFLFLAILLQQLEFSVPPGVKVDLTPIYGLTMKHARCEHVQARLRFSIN
The data set can be described thus: Human liver microsome CYP inhibition experiment. As to conditions: pooled human liver microsomes; read-out: Cytochrome P450 isoenzyme IC50 CYP1A2. The data set is classed as in vitro ADME. The procedure:
(§1) The research project used a specific probe substrate for each isoenzyme to evaluate the inhibitory effect of the test compound on human liver microsomal cytochrome P450 isoenzymes (CYPIA2. CYP2C9, CYP2C19, CYP2D6, and CYP3A4). Mixed human liver microsomes (pooled HLM, n≥50) were purchased from Corning Inc. (Steuben, N.Y., USA) or other qualified suppliers, and were stored in a refrigerator below −60° C. before use. The diluted series of to-be-tested compound working solutions were added to an incubation system containing cofactors of human liver microsomes, a probe substrate and a circulation system, and the methanol content was about 1% (v/v) of the final incubation system. A control containing no the to-be-tested compound and containing a solvent was used as a control for enzyme activity (100%). The concentration of the analyte in the sample was determined by liquid chromatography-tandem mass spectrometry (LC/MS/MS). The calculation was performed by using the average of the concentrations of the samples (a blank solvent, a positive control inhibitor, or the to-be-tested compound). Non-linear regression analysis was performed by using SigmaPlot (V.11) on the average percent activity of the compound to be tested to the concentration. The IC50 value was calculated by a three-parameter or four-parameter inflection logarithmic equation.
On the technique in general: Microsomes from liver hold many membrane-bound enzymes, among them those of drug oxidation.

Another data set deals with T2, CYP2C19 (Homo sapiens, UniProt P33261).
T2 construct: Mixed human liver microsomes (pooled HLM, n≥50) were purchased from Corning Inc; tissue Corning Inc. or other qualified suppliers; host or cells: pooled human liver microsomes (n≥50)
T2 sequence (P33261 whole entry): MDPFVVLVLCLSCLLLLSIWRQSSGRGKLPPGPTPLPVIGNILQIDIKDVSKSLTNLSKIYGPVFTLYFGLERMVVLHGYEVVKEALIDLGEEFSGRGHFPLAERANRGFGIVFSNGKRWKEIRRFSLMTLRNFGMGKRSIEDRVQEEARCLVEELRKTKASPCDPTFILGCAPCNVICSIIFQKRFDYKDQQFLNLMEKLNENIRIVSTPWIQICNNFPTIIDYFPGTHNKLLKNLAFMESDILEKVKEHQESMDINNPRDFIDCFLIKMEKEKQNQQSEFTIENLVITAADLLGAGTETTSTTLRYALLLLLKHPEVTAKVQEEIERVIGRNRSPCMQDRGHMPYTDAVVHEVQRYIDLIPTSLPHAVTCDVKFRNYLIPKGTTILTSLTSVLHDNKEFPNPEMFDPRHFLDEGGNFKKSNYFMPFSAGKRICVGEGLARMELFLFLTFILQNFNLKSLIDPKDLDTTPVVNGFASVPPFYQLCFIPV
The data set can be described thus: Human liver microsome CYP inhibition experiment. It is filed as in vitro ADME. As to conditions: pooled human liver microsomes; read-out: Cytochrome P450 isoenzyme IC50 2C19. The procedure:
as §1

In a further data set the target is T3, CYP2C9 (Homo sapiens, UniProt P11712).
T3 construct: Mixed human liver microsomes (pooled HLM, n≥50) were purchased from Corning Inc; tissue Corning Inc. or other qualified suppliers; host or cells: pooled human liver microsomes (n≥50)
T3 sequence (P11712 whole entry): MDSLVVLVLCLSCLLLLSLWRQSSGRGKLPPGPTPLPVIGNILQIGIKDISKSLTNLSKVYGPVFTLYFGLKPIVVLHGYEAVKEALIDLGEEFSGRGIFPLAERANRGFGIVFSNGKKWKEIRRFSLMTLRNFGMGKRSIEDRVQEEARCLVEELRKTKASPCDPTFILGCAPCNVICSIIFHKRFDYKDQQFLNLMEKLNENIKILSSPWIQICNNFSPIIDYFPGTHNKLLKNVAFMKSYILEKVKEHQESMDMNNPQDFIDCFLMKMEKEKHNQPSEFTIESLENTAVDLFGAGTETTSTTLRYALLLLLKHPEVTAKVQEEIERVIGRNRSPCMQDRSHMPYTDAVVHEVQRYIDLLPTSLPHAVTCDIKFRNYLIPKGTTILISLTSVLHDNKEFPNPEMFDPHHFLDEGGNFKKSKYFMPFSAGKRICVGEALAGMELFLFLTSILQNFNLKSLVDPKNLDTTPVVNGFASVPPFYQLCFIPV
In words: Human liver microsome CYP inhibition experiment. As to conditions: pooled human liver microsomes; read-out: Cytochrome P450 isoenzyme IC50 2C9. The data set is classed as in vitro ADME. The procedure: as §1

In another data set the target is T4, CYP2D6 (Homo sapiens, UniProt P10635).
T4 construct: Mixed human liver microsomes (pooled HLM, n≥50) were purchased from Corning Inc; tissue Corning Inc. or other qualified suppliers; host or cells: pooled human liver microsomes (n≥50)
T4 sequence (P10635 whole entry): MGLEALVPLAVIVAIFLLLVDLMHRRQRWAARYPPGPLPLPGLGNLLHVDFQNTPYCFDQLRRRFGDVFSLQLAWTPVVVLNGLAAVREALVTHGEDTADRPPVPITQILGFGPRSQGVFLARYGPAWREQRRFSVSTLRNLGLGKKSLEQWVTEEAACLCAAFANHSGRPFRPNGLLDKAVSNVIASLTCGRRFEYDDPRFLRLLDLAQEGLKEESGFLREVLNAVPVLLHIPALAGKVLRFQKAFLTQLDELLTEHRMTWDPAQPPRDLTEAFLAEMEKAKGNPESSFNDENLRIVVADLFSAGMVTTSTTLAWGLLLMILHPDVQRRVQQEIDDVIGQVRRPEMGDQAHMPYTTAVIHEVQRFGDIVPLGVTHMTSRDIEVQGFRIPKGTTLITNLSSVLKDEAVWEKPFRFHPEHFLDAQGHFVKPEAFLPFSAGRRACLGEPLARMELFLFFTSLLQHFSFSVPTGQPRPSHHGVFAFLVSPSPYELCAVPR
In words: Human liver microsome CYP inhibition experiment. It is filed as in vitro ADME. Particulars: pooled human liver microsomes; read-out: Cytochrome P450 isoenzyme IC50 2D6. The procedure: as §1

Another data set has as its target T5, CYP3A4 (Homo sapiens, UniProt P08684).
T5 construct: Mixed human liver microsomes (pooled HLM, n≥50) were purchased from Corning Inc; tissue Corning Inc. or other qualified suppliers; host or cells: pooled human liver microsomes (n≥50)
In words: Human liver microsome CYP inhibition experiment. It is filed as in vitro ADME. Particulars: pooled human liver microsomes; read-out: Cytochrome P450 isoenzyme IC50 3A4. The procedure: as §1

Data set [2] can be described thus: Plasma protein binding rate (PPB) test, equilibrium dialysis. It is filed as in vitro ADME. Particulars: human, 37°C. The procedure: (§2) In vitro protein binding rates of 0.2 μM, 2 μM, 10 μM of test compounds with Sprague-Dawley rats, beagle dogs, human plasma were determined by equilibrium dialysis.
(§3) The experiment will use a 96-well equilibrium dialysis plate (HTDialysis device) to determine the plasma protein binding rate of the to-be-tested compound and the control compounds.
(§4) Prior to the start of the experiment, the dialysis membrane was pretreated according to the instructions for use and the dialysis unit was assembled as required.
(§5) Blank plasma was taken from CD-1 mice, Sprague-Dawley rats, Beagle dogs, cynomolgus monkeys and humans (an anticoagulant is EDTA-K2, which is a commercial product purchased, or is collected and prepared by the Drug Evaluation Department of Wuxi AppTech, and is stored in a refrigerator below −60° C. before use). A certain volume of the to-be-tested compound or the control compound working solution was added to prepare plasma samples of the compound to be tested at a concentration of 0.2, 2, 10 μM and plasma samples of the control compound at a concentration of 2 μM (n=1). The organic phase content was ≤1%. First, a certain volume of a plasma sample containing the to-be-tested compound and the control compound was taken out into the sample receiving plate as a sample at zero time (T0 sample, n=3); secondly, a plasma sample containing the to-be-tested compound and the control compound was added to one side of the dialysis membrane (plasma end, n=3), and a certain volume of dialysis buffer (buffer end, n=3) was added to the other side of the dialysis membrane; then the dialysis plate was placed in a humidified incubator with 5% CO2 for incubation for 4 hours at 37±1° C.
(§6) After the incubation, a certain volume of the dialyzed buffer sample (F sample) and the dialyzed plasma sample (T sample) were transferred to the sample receiving plate, and all samples were subjected to protein precipitation for LC/MS/MS analysis. And the dissociation rate of the compound (% Unbound) was calculated by the following formula: % Unbound=100*[F]/[T], % Bound=100−% Unbound. Wherein, % Unbound is the dissociation rate of the compound; % Bound is the binding rate of the compound; [F] is the concentration of the compound at the buffer end of the dialysis plate; [T] is the concentration of the compound at the plasma end of the dialysis plate; and the experimental results are shown in Table 7.
(Equilibrium dialysis compares concentrations on both sides of a semipermeable membrane.)

Assay in data set [3]: as above
It is filed as in vitro ADME, Sprague-Dawley rats. As to conditions: Sprague-Dawley, rat, 37°C, read-out: Plasma Protein Binding (%) SD Rat Plasma (converted). The procedure: as §2, §3, §4, §5, §6

T5 sequence (P08684 whole entry): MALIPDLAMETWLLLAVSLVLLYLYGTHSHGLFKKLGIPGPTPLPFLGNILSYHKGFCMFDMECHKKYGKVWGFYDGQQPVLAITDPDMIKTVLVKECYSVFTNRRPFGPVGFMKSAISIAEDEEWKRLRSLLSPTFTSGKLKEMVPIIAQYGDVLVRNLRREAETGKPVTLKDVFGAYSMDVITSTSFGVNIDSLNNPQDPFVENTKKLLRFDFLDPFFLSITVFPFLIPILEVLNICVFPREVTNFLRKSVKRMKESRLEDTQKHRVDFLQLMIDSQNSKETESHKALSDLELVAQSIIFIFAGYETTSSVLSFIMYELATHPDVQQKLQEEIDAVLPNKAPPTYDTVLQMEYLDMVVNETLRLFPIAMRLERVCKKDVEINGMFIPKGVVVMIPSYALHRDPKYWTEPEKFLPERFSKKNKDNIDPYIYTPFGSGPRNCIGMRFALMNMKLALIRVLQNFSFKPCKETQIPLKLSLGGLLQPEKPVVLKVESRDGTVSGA

As to `COc1ccc2c(c1OCc1ccccc1)C[C@@H](C(=O)O)N(C(=O)[C@@H](OC1CCCC1)c1ccccc1)C2` [Compound 37], the solubility at 24 h in data set [1] is greater than 200 µM. In addition, the half-inhibitory concentration (IC50) at CYP1A2 was greater than 50 µM; at CYP2C19, greater than 50 µM; on CYP2C9, 30.5 µM; on CYP2D6, greater than 50 µM; on CYP3A4, greater than 50 µM. Moreover, the fraction unbound at 4 h in data set [2] is 0.004; in data set [3] it was 0.001.

With `COc1ccc2c(c1OCc1ccccc1)C[C@@H](C(=O)O)N(C(=O)[C@@H](OC1CC(F)(F)C1)c1ccccc1)C2` [Compound 51], the solubility at 24 h in data set [1] was determined as 190 µM (≈ 102 µg/mL). The IC50 was greater than 50 µM on CYP1A2; greater than 50 µM at CYP2C19; 34.4 µM on CYP2C9; greater than 50 µM at CYP2D6; greater than 50 µM on CYP3A4. In addition, the fraction unbound at 4 h was 0.007 in data set [2] and 0.055 in data set [3].

On to `COc1ccc2c(c1OCc1ccccc1)C[C@@H](C(=O)O)N(C(=O)[C@@H](OC1(C)CCCC1)c1ccccc1)C2` [Compound 57], for which the figures for the fraction unbound at 4 h in data set [2] and in data set [3] were 0.005 and 0.002, respectively.

Compound `COc1ccc2c(c1OCc1ccccc1)C[C@@H](C(=O)O)N(C(=O)[C@@H](O[C@H]1CC[C@@H](O)CC1)c1ccccc1)C2` [Compound 63] gave a solubility at 24 h in data set [1] of 190 µM (≈ 104 µg/mL). The concentration for half-maximal inhibition (IC50) at CYP1A2, at CYP2C19, at CYP2C9, at CYP2D6 and on CYP3A4 was greater than 50 µM in each case. Moreover, the fraction unbound at 4 h in data set [2] was 0.016; in data set [3], 0.011.

In data set [1], `O=C(O)[C@@H]1Cc2c(ccc(Cl)c2OCc2ccccc2)CN1C(=O)[C@@H](OC1CCCC1)c1ccccc1` [Compound 107] came in with a solubility at 24 h of 181 µM (≈ 94.2 µg/mL). In addition, the IC50 was greater than 50 µM on CYP1A2; greater than 50 µM at CYP2C19; 14.5 µM on CYP2C9; greater than 50 µM at CYP2D6; greater than 50 µM at CYP3A4.

As to `COc1ccc2c(c1OCc1ccccc1)C[C@@H](C(=O)O)N(C(=O)C(c1ccccc1)c1ccccc1)C2` [EMA-401, reference compound], the concentration in solution in data set [1] (solubility at 24 h) came to 192 µM (≈ 97.3 µg/mL). Also, the concentration for half-maximal inhibition (IC50) on CYP1A2 was 13 µM; on CYP2C19, 17.6 µM; at CYP2C9, 7.28 µM; at CYP2D6, greater than 50 µM; at CYP3A4, 9.19 µM. The fraction unbound at 4 h in data set [2] is 0.002; in data set [3], 0.001.
